The text below walks through data of patent publication US20180015051A1, “MODULATORS OF ALPHA-DICARBONYL DETOXIFICATION AND THEIR USE FOR THE TREATMENT OF DIABETIC PATHOLOGIES” (Buck Institute for Research on Aging, priority 2016, published 2018).

In experiment [1] the test system is C. elegans. The experiment is described as follows: Touch assay (touch index, gentle touch). Conditions: glod-4, young adult stage; 66.7 pM in DMSO. As to the method:
For feeding RNAi bacteria, synchronized L1 larvae were transferred to NGM plates containing 1 mM of isopropyl P-D-1- thiogalactopyranoside/IPTG (referred to as RNAi plates) seeded with 20× concentrated HT1115 bacteria (cultured overnight at 20° C. at 220 rpm), carrying desired plasmid for RNAi of a specific gene or bacteria carrying empty vector pL4440 as control and allowed to grow on plates for 48 h. For drug assays, synchronized L4 larvae were transferred to either 60 mm NGM plates (with or without IPTG), freshly seeded with 5×E. coli OP50-1 or 20× HT1115 RNAi bacteria. Before seeding, the desired drug (or vehicle control) was mixed with the bacteria. Final drug concentrations were calculated considering the total volume of media and bacteria seeded on the NGM plates.
Briefly, each animal was touched alternately in the head region and in the tail with an eyelash. Typically, an omega turn or diversion in head direction resulting from anterior touch was counted as a positive response. Posterior touch response (not counted towards positive response) functioned towards resetting of the response to anterior touch. Touch index (TI) scores were generated by dividing the total number of positive responses over the […] per animal.
Synchronized glod-4 L1 animals were cultured on NGM agar plates seeded with E. coli OP50-1 until L4. […] Post-transfer into wells, animals were fed OP50-1 bacteria ad libitum while incubating at 20° C. on a rocker for 12 h. DMSO was used as control. Post-incubation with drug or DMSO, animals were transferred from wells onto NGM agar plates seeded with OP50-1 bacteria. Touch assay was performed on individual animal and touch index (TI) was calculated for each compound from the library as mentioned earlier.

Experiment [2] relates to C. elegans. The experiment is described as follows: Lifespan assay (survival curves). Format: in vivo, Caenorhabditis elegans. Conditions: glod-4 mutant animals; PA, LA, or UMP (20 pM) vs EtOH control. The method, then:
Life span assays were performed in Thermo Scientific Precision incubators at 20° C. After alkaline hypochlorite treatment, synchronized L1 animals were either placed onto NGM plates seeded with 5× concentrated E. coli OP50-1 (cultured on Lysogeny Broth/LB overnight) or on RNAi plates supplemented with 20×HT1115 RNAi bacteria. Post-L4 stage of development, all lifespan assays were performed using FUdR (5-fluoro-2 deoxyuridine) plates to inhibit development and growth of progeny. Every two days, animals were transferred on to new 60 mm NGM or RNAi plates freshly seeded with OP50-1 or HT1115 bacteria (with or without drug), respectively. 90-120 animals were considered for each lifespan experiment. Animal viability was assessed visually or with gentle prodding on the head. Animals were censored in the event of internal hatching of the larvae, body rupture, or crawling of larvae from the plates.

The subject of a further experiment is SKN-1/Nrf2. Nature of the experiment: SKN-1 activation assay (GFP reporters for SKN-1, gst-4, gcs-1; qPCR). The format is in vivo, Caenorhabditis elegans. As to conditions: gst-4p::gfp animals on EV or glod-4 RNAi; PA, LA, or UMP (20 pM). As to the method: Adult animals were examined for SKN-1/Nrf2 activation using GFP reporters for both SKN-1 and SKN-1 target genes: gst-4 and gcs-1. For exogenous MGO and drug assays, age-synchronized GFP reporter strains were subject to control and treatment conditions for a period of 4-6 hours before microscopy. For RNAi-induced activation studies, GFP reporter strains were fed on HT1115 bacteria expressing empty vector pL4440 or RNAi gene from L1 stage. Synchronized day 1 adult animals were then subjected to microscopic examination. Activation of SKN-1 using SKN-1 fusion reporter was determined as described earlier (An et al. (2003) Genes & Dev. 17: 1882-1893; Onken and Driscoll (2010) PloS One, 5: e8758). Scoring for downstream SKN-1 targets carrying GFP reporter for gcs-1 promoter was performed based on a previous study (Wang et al. (2010) PLoS Genetics, doi. org/10.1371/journal.pgen.1001048) and categorized as follows: ‘high’ for strong GFP signal throughout the intestine, ‘medium’ for GFP signal in the anterior or posterior section of the intestine and ‘low’ for weak or no signal. For animals with gst-4 promoters carrying GFP reporters number of GST-4 positive foci was counted under different conditions as described previously (Fensgardet al. (2010) Aging, 2: 133-159). Quantification of acquired images was done using the Image J™ software (//imagej.nih.gov/ij/).
Total RNA was extracted from nearly 100 age-synchronized adult animals picked and collected in 20 pl of M9 buffer using TRIzol reagent (Life Technologies, CA). Subsequently, 1 pg total RNA was used as template for cDNA synthesis. cDNA was synthesized using the ISCRIPT™ cDNA synthesis kit (Bio-Rad, CA) following manufacturer's protocol. qRT-PCR was carried out using the SensiFAST SYBR No-ROX kit (Bioline, MA) in a LightCycler 480 Real-Time PCR system (Roche Diagnostics Corp., IN). Quantification was performed using the comparative AACt method and normalization for internal reference was done using actin gene act-1.
A general note: Real-time PCR tracks product formation cycle by cycle.

The next experiment has as its system glod-4 animals. The experiment is described as follows: LC-MS/MS estimation of a-DC levels (MGO, GO) in worms. The format is in vivo, Caenorhabditis elegans. As to conditions: glod-4, PA. The method, then: Worms were cultured on NGM agar plates as explained before for lifespan experiments with some modifications: ˜100 animals/60 mm plates were used for each experimental replicate and animals were harvested at day 4 of adulthood with 20 pL M9 buffer in 1.5 mL eppendorf tubes. Worm suspensions were flash-frozen over liquid nitrogen and subsequently homogenized ultrasonically using a Fisher Scientific's 550 Sonic Dismembrator with 80 pL of sodium formate buffer (pH=3) containing 75 pM of 2,3-hexanedione (internal standard, IS). Two 20 s pulses at amplitude setting 4 of the instrument (on ice) were sufficient to completely homogenize worm bodies. To each homogenate tube 20 pL of 100 mg/mL o-phenelynediamine (OPD) solution in sodium formate buffer (pH=3) were added, and the mixture was allowed to react in dark at room temperature for ˜22 h. The long reaction time and the pH are critical parameters in this protocol: first to ensure complete derivatization of a-DCs bound reversibly to protein/glutathione —SHs; and second to prevent in vitro a-DC generation from glycolytic intermediates (DHAP, GAP, etc.) or due to DNA breakdown (Chaplen et al. (1998) Proc. Natl. Acad. Sci. USA, 95: 5533-5538). At the end of the stipulated reaction window, 12 pL of 5 M perchloric acid was added to each tube and incubated on ice for 30 min to ensure complete protein precipitation. Subsequently, the tubes were centrifuged at 10,000 rpm for 10 min, and the supernatant collected and neutralized with 30 pL 4 M NH4OH solution.
Optimization of analyte-specific MRM transitions, such as determination of suitable precursor and product ions and optimal MS parameters for each transition (Q1, precursor→Q3, product) were achieved by isocratic flow injection of the 10 pM solution (final) for each standard- or IS-OPD derivatives. The most intense (Q1→Q3) transition was used as quantifier, whereas the next best transition was used as qualifier for each compound (Table 4). For LC separation, a solvent gradient of 0.1% acetic acid in water (aqueous) - methanol (organic) was used with 0.4 mL/min flow rate, starting with an […] content of 3% for 0.7 min, which was increased to 100% over 6 min and held at 100% for 1.5 min. The LC column was subsequently reconstituted to its initial condition (methanol content of 3%) over the next 0.5 min and re-equilibrated for 3 min.
Derivatized metabolome extracts, as well as synthetic a-DCs were analyzed by scheduled LC-MRM in positive ion mode. To develop the scheduled LC-MRM method, MS/MS data was collected for all transitions across the length of each LC run for a mixture of synthetic GO-, MGO-, 3DG-, and 2,3-hexanedione (IS)-OPD derivatives (1 pL injection of 1 pM final concentration). Source conditions were as follows: curtain gas (CUR) 20, nebulizer gas (GS1) 60, auxiliary gas (GS2) 50, ionspray voltage (IS) 4500 V, and source temperature (TEM) 450° C. This step was undertaken to ascertain the LC retention times (RT) for the OPD derivatives. Several such sets were acquired to compute analyte-specific variability in RTs. Next, the MS was switched to operate in scheduled MRM mode, whereby the mass spectrometer acquired data for specific MRM transitions ±45 s around the computed RT for the analyte (Table 4). Relative quantification of GO, MGO, and 3DG were based on integration of corresponding OPD derivative-specific quantifier peaks obtained from scheduled LC-MRM runs (peak areas) and adjusted to the number of animals. To account for OPD derivatization efficiencies in individual tubes, sample-to-sample variability in MS response, and differential sample dilutions (both for synthetic a-DCs as well as a-DCs in worm homogenates), the peak areas were normalized to the quantifier peak area for IS-OPD for each sample.

For a further experiment, the target named is T1, TRPM8 (mouse) (Mus musculus, UniProt Q8R4D5).
T1 construct: expressed in transfected cells; host or cells: HEK293T
Nature of the experiment: Calcium imaging of HEK293T cells (Rhod-3 AM), mouse TRPM8. As to conditions: HEK293T transfected with mouse TRPM8 and GFP; 100 pM MGO then 100 pM menthol. Format: cell-based. The method, then: (§1) Appropriate HEK293T-derived cells were seeded on collagen-coated glass bottom culture dishes (MatTek Corporation). Cells were loaded with 10 pM of Rhod-3 AM (Life Technology) for 30 min at 37° C. After 30 min they were washed twice with standard Tyrode's solution (135 mM NaCl, 4 mM KCl, 10 mM glucose, 10 mM HEPES, 2 mM CaCl2, and 1 mM MgCl2 at pH=7.4) at room temperature. Calcium imaging was performed on an Olympus BX51WI Axiovert microscope under a 60× objective. Fluorescent images were documented upon sequential excitation with 555 nm followed by 484 nm with a Roper CoolSnap CCD camera. After establishing a baseline 555/484 ratio, methylglyoxal or other agonists were diluted with Tyrode's solution (100 pM or 1 mM final concentration) and were perfused into cells. Images were processed with the MetaFlour (Olympus) software.

Another experiment deals with native HEK293T cells. The experiment is described as follows: Calcium imaging of native HEK293T cells (GFP only). Format: cell-based. As to the method: as §1
The target of a further experiment is T2, TRPA1 (worm) (Caenorhabditis elegans, UniProt Q18297).
T2 construct: expressed in transfected cells; host or cells: HEK293T
T2 sequence (Q18297 1-1211): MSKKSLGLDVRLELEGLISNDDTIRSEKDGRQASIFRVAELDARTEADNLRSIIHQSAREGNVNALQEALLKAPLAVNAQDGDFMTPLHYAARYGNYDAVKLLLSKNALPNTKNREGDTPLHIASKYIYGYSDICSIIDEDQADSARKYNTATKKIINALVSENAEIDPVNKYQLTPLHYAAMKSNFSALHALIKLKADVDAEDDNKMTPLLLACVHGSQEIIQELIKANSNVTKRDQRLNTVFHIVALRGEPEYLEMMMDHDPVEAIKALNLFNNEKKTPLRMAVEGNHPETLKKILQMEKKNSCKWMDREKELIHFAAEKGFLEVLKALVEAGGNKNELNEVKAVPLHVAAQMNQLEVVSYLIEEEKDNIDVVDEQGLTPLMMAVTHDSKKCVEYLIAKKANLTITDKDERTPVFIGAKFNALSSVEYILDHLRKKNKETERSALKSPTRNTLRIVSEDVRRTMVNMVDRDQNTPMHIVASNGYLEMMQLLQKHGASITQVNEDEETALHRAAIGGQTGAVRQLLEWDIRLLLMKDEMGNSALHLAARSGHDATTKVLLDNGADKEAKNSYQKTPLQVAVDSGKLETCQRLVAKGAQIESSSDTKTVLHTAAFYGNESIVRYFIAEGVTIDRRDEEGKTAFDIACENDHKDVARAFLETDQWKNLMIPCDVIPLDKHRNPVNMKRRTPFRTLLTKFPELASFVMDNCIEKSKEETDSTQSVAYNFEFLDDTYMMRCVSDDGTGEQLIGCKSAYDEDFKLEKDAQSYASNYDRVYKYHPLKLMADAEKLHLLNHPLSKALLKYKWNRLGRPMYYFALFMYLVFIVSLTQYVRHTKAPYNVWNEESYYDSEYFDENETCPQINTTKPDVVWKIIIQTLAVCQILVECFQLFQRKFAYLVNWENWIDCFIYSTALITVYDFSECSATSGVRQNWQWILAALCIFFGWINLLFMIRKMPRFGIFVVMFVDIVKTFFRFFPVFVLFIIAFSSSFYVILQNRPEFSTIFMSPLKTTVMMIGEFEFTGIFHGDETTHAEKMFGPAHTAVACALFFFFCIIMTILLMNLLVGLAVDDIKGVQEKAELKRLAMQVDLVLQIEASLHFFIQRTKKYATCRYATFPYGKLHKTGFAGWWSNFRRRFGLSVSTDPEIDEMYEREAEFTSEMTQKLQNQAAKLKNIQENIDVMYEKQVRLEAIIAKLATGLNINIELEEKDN
Nature of the experiment: Calcium imaging of HEK293T cells (Rhod-3 AM), worm TRPA1. Format: cell-based, C. elegans. Conditions: HEK293 cells transfected with worm TRPA1 and GFP; 100 pM AITC. The method, then:
as §1

The target of a further experiment is T3, TRPA1 (RAT) (Rattus norvegicus, UniProt Q6RI86).
T3 construct: expressed in transfected cells; host or cells: HEK293T
As to conditions: stated as known; cited from earlier work.

T1 sequence (Q8R4D5 whole entry): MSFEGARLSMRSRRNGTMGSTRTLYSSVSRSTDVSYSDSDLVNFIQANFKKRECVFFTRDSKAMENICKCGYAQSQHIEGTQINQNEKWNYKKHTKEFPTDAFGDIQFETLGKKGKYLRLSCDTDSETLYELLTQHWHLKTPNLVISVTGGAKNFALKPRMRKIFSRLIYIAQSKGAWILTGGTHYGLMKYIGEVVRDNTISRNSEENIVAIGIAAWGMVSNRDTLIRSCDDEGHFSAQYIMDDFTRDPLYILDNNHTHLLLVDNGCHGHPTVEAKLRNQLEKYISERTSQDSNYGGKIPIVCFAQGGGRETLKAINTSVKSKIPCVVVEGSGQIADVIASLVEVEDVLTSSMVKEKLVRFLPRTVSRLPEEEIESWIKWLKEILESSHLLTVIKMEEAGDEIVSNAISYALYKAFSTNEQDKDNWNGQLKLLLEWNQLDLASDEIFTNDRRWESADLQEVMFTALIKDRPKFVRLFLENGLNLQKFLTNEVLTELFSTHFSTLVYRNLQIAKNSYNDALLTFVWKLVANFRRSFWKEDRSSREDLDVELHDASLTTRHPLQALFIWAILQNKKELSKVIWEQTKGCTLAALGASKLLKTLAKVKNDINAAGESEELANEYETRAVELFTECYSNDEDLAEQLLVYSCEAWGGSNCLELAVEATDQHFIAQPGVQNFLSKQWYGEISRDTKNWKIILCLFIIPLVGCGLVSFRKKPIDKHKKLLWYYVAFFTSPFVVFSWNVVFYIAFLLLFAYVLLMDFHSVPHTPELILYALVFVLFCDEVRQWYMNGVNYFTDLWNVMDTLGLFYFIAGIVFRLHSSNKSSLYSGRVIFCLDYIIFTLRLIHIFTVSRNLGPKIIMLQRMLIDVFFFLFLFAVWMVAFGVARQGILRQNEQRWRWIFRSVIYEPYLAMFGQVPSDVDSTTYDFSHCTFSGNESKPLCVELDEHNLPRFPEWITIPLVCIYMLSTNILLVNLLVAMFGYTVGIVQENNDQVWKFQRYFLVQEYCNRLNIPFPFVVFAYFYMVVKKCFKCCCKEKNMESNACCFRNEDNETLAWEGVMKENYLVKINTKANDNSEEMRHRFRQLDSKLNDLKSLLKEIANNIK
T3 sequence (Q6RI86 whole entry): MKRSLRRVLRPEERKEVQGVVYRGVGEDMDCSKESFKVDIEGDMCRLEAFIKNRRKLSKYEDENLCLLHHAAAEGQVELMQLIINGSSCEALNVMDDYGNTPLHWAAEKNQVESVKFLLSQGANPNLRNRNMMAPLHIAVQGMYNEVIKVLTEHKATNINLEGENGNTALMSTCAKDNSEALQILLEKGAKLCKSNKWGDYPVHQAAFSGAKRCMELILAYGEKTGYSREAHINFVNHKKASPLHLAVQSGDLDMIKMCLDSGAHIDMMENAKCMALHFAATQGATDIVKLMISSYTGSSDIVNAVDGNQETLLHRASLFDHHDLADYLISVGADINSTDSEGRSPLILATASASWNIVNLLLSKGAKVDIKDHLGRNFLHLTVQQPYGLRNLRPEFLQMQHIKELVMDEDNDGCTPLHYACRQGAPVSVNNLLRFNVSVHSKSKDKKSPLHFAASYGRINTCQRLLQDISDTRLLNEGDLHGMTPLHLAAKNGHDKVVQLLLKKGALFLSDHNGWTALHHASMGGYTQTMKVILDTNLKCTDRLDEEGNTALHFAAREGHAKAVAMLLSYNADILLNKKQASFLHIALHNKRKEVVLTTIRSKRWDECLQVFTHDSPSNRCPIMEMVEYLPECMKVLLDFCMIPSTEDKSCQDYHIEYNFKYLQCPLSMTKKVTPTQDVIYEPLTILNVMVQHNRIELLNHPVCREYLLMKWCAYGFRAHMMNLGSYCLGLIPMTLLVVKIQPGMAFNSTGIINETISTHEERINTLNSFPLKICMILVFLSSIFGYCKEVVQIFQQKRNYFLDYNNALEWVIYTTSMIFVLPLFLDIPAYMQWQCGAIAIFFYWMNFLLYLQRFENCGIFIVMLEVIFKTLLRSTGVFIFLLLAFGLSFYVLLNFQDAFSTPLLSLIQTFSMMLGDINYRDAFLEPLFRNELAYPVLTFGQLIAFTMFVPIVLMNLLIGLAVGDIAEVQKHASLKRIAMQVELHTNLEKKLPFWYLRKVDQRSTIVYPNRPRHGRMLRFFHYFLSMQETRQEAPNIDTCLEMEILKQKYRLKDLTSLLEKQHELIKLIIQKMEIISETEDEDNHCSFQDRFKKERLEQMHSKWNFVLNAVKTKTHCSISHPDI

In the case of `O=c1ccn([C@@H]2O[C@H](COP(=O)(O)O)[C@@H](O)[C@H]2O)c(=O)[nH]1` [UMP, Uridine monophosphate], the “Touch sensitivity (touch index) in drug screen of TimTec NPL640” value in the experiment on C. elegans [1] was “reduced touch sensitivity”. For the same molecule, in the experiment on C. elegans [2], the “Lifespan / early mortality (survival curves)” value is reported as “does not ameliorate”. Moreover, the “SKN-1 activation (GFP foci in gst-4p::gfp)” value in the experiment on SKN-1/Nrf2 is reported as “nor does it activate SKN-1”. Besides, in the experiment on glod-4 animals (LA, or UMP (20 pM each) vs EtOH control), the “Levels of GO” value is “does not ameliorate”. Also, the “Levels of MGO” value in the experiment with glod-4 animals (LA, or UMP (20 pM) vs EtOH control) is “does not ameliorate”.

For the molecule `CC1CCC(C(C)C)C(O)C1` (stereo not drawn) [menthol], the “Ca2+ flux through the TRPM8 channel (Rhod-3 AM)” value at TRPM8 (mouse) was “triggers a Ca^+2 flux”. Besides, the “Ca2+ flux in native HEK293T cells (Rhod-3 AM)” value in the experiment with native HEK293T cells is given as “neither compounds resulted in Ca^+2 flux”.

As to `C=CCN=C=S` [AITC, allyl isothiocyanate], the “Activation of worm TRPA1 channel (Ca2+ flux, Rhod-3 AM)” value on TRPA1 (worm) is given as “failed to activate”. Further, the “Activation of mammalian TRPA1” value on TRPA1 (RAT) was “known to activate”.
